Measured values reported in US20150344444A1, “BET-PROTEIN-INHIBITING DIHYDROXYQUINOXALINONES” (BAYER PHARMA AKTIENGESELLSCHAFT, priority 2012, published 2015).

Tests used:
[1] = target: T1, BRD4 Bromo Domain 1 [BRD4(1)] (Homo sapiens, UniProt O60885); assay: BRD4(1)/acetylated peptide H4 binding assay (TR-FRET); conditions: inhibition of interaction between His6-tagged BRD4(1) (amino acids 67-152) and acetylated histone H4 peptide
T1 construct: N-terminally His6-tagged BRD4(1) (amino acids 67-152); made in house; host or cells: E. coli
Excerpt: Protein-Protein Interaction Assay: BRD4/Acetylated Peptide H4 Binding Assay
1. Assay Description for BRD4 Bromo Domain 1 [BRD4(1)]
To assess the BRD4(1) binding strength of the substances described in this application, the ability thereof to inhibit the interaction between BRD4(1) and acetylated histone H4 in a dose-dependent manner was quantified.
For this purpose, a time-resolved fluorescence resonance energy transfer (TR-FRET) assay was used, which measures the binding between N-terminally His6-tagged BRD4(1) (amino acids 67-152) and a synthetic acetylated histone H4 (Ac-H4) peptide with sequence GRGK(Ac)GGK(Ac)GLGK(Ac)GGAK(Ac)RHGSGSK-biotin. The recombinant BRD4(1) protein produced in house according to Filippakopoulos et al., Cell, 2012, 149:214-231 was expressed in E. coli and purified by means of (Ni-NTA) affinity and (Sephadex G-75) size exclusion chromatography. The Ac-H4 peptide can be purchased, for example, from Biosyntan (Berlin, Germany).
In the assay, typically 11 different concentrations of each substance (0.1 nM, 0.33 nM, 1.1 nM, 3.8 nM, 13 nM, 44 nM, 0.15 μM, 0.51 μM, 1.7 μM, 5.9 μM and 20 μM) were analysed as duplicates on the same microtitre plate. For this purpose, 100-fold concentrated solutions in DMSO were prepared by serial dilutions (1:3.4) of a 2 mM stock solution into a clear, 384-well microtitre plate (Greiner Bio-One, Frickenhausen, Germany). From this, 50 nl were transferred into a black test plate (Greiner Bio-One, Frickenhausen, Germany). The test was started by the addition of 2 μl of a 2.5-fold concentrated BRD4(1) solution (final concentration typically 10 nM in the 5 μl of reaction volume) in aqueous assay buffer [50 mM HEPES pH 7.5, 50 mM sodium chloride (NaCl), 0.25 mM CHAPS and 0.05% serum albumin (BSA)] to the substances in the test plate. This was followed by a 10-minute incubation step at 22° C. for the pre-equilibration of putative complexes between BRD4(1) and the substances.
The mixture was then incubated in the dark at 22° C. for one hour and then at 4° C. for at least 3 hours and for no longer than overnight. The formation of BRD4(1)/Ac-H4 complexes was determined by the measurement of the resonance energy transfer from the streptavidin-Eu cryptate to the anti-6His-XL665 antibody present in the reaction. For this purpose, the fluorescence emission was measured at 620 nm and 665 nm after excitation at 330-350 nm in a TR-FRET measuring instrument, for example a Rubystar or Pherastar (both from BMG Lab Technologies, Offenburg, Germany) or a Viewlux (Perkin-Elmer). The ratio of the emissions at 665 nm and at 622 nm was taken as an indicator of the amount of BRD4(1)/Ac-H4 complexes formed.
The data (ratios) obtained were normalized, with 0% inhibition corresponding to the mean from the measurements for a set of controls (typically 32 data points) in which all the reagents were present. In these, in place of test substances, 50 nl of DMSO (100%) were used Inhibition of 100% corresponded to the mean from the measurements for a set of controls (typically 32 data points) in which all the reagents except BRD4(1) were present. The IC50 was determined by regression analysis based on a 4-parameter equation (minimum, maximum, IC50, Hill; Y=max+(min−max)/(1+(X/IC50)Hill).

MOLM-13 cells = assay: MOLM-13 cell proliferation assay (alamarBlue); assay type: cell-based; conditions: inhibition of cell proliferation, 96 hours, human AML cell line
Protocol: (§1) In accordance with the invention, the ability of the substances to inhibit cell proliferation was determined Cell viability was determined by means of the alamarBlue® reagent (Invitrogen) in a Victor X3 Multilabel Reader (Perkin Elmer). The excitation wavelength was 530 nm and the emission wavelength […].
The MOLM-13 cells (DSMZ, ACC 554) were sown at a concentration of 4000 cells/well in 100 μl of growth medium (RPMI1640, 10% FCS) on 96-well microtitre plates.
(§2) After overnight incubation at 37° C., the fluorescence values were determined (CI values). Then the plates were treated with various substance dilutions (1E-5 M, 3E-6 M, 1E-6 M, 3E-7 M, 1E-7 M, 3E-8 M, 1E-8 M) and incubated at 37° C. over 96 hours (MOLM-13, B16F10 cells) or 120 hours (MOLP-8 cells). Subsequently, the fluorescence values were determined (CO values). For the data analysis, the CI values were subtracted from the CO values and the results were compared between cells which had been treated with various dilutions of the substance or only with buffer solution. The IC50 values (substance concentration needed for 50% inhibition of cell proliferation) were calculated therefrom.
MOLM-13 human AML (acute myeloid leukaemia) cell line

B16F10 cells = assay: B16F10 cell proliferation assay (alamarBlue); assay type: cell-based; conditions: B16-F10; inhibition of cell proliferation, 96 hours, mouse melanoma cell line
Protocol: as §1
The B16F10 cells (ATCC, CRL-6475) were sown at a concentration of 300-500 cells/well in 100 μl of growth medium (DMEM with phenol red, 10% FCS) on 96-well microtitre plates.
as §2
B16F10 mouse melanoma cell line

MOLP-8 cells = assay: MOLP-8 cell proliferation assay (alamarBlue); assay type: cell-based; conditions: inhibition of cell proliferation, 120 hours, human multiple myeloma cell line
Protocol: as §1
The MOLP-8 cells (DSMZ, ACC 569) were sown at a concentration of 4000 cells/well in 100 μl of growth medium (RPMI1640, 20% FCS) on 96-well microtitre plates.
as §2
MOLP-8 human multiple myeloma cell line

IC50 [1]: 50 nM | IC50 (MOLM-13 cells): 356 nM | IC50 (B16F10 cells): 643 nM
SMILES: C[C@@H]1C(=O)N(C)c2ccc(Nc3ccc(C(=O)NC4CCN(C)CC4)cc3)cc2N1C1CCCC1 [Example 4, 4-{[(3R)-4-cyclopentyl-1,3-dimethyl-2-oxo-1,2,3,4-tetrahydroquinoxalin-6-yl]amino}-N-(1-methylpiperidin-4-yl)benzamide]
IC50 (MOLP-8 cells): 468 nM
